In patent EP4722207A1, “OXOISOINDOLINYL-SUBSTITUTED TETRAHYDROPYRIMIDINEDIONE DERIVATIVE AND USE THEREOF” (Gluetacs Therapeutics (Shanghai) Co., Ltd., priority 2023, dated 2024):

Legend:
MDA-MB-231 = experiment: Cell viability assay (CellTiter-Meiluncell Luminescent), tumor cell proliferation, MDA-MB-231; details: Homo sapiens, MDA-MB-231, 96 h; for inhibition at 0.01 µM: read-out: Inhibition Rate at 10 nM (%); for inhibition at 0.5 µM: read-out: Inhibition Rate at 500 nM (%)
Description: (§1) The tumor cells used herein were cultured in a cell culture medium listed in table 2 at 37°C in an incubator with 5% CO2. Prior to experimentation, all cell lines used were correctly identified by STR profiling, and tested negative for mycoplasma contamination using a mycoplasma detection kit through routine screenings.
(§2) On the following day, the test compounds of the present disclosure were subjected to serial dilution. […] Subsequently, 0.5 µL of the test compound dilution was transferred into the 96-well plate containing the cells, with each well containing 100 µL of cell culture medium. […] Into the 96-well plate, the diluted test compounds and corresponding detection reagents were added, resulting in final test compound concentrations of 500 nM and 10 nM, respectively. The experimental procedure is described below using the diluted 2 µM test compound as an example.
(§3) After the cells were treated with the compounds of the present disclosure for a specified period, the cell viability assay reagent was added to the culture medium according to the kit's instructions to determine cell viability. […] All controls were treated using the same procedure as the compounds of the present disclosure. The growth inhibition curves for the compounds of the present disclosure were plotted using Prism GraphPad software, and the IC50 values were calculated therefrom.

H2228 = experiment: Cell viability assay (CellTiter-Meiluncell Luminescent), tumor cell proliferation, H2228; details: Homo sapiens, NCI-H2228, 96 h; for inhibition at 0.01 µM: read-out: Inhibition Rate at 10 nM (%); for inhibition at 0.5 µM: read-out: Inhibition Rate at 500 nM (%)
Description: as §1, §2, §3

IKZF2 = biological target: T1, IKZF2 (Homo sapiens, UniProt Q96SW2+Q9UKS7); experiment: Western-blot assay, substrate protein degradation in hPBMCs: IKZF2; type: cell-based; details: 24 hours of compound treatment, 50 nM and 500 nM
T1 construct: effects of the compounds of the present disclosure on the expression of target proteins in cells; endogenous in cells; host or cells: human PBMCs (hPBMCs)

IKZF3 = biological target: T2, IKZF3 (Homo sapiens, UniProt Q96SW2+Q9UKT9); experiment: Western-blot assay, substrate protein degradation in hPBMCs: IKZF3; type: cell-based; details: 24 hours of compound treatment, 50 nM and 500 nM
T2 construct: effects of the compounds of the present disclosure on the expression of target proteins in cells; endogenous in cells; host or cells: human PBMCs (hPBMCs)

CK1α = biological target: T3, CK1α (Homo sapiens, UniProt P48729+Q96SW2); experiment: Western-blot assay, substrate protein degradation in hPBMCs: CK1α; type: cell-based; details: 24 hours of compound treatment, 50 nM and 500 nM
T3 construct: effects of the compounds of the present disclosure on the expression of target proteins in cells; endogenous in cells; host or cells: human PBMCs (hPBMCs)

MV-4-11 = experiment: Cell viability assay (CellTiter-Meiluncell Luminescent), tumor cell proliferation, MV-4-11; details: Homo sapiens, MV4-11, 96 h; for inhibition at 0.01 µM: read-out: Inhibition Rate at 10 nM (%); for inhibition at 0.5 µM: read-out: Inhibition Rate at 500 nM (%)
Description: as §1, §2, §3

IKZF1 = biological target: T4, IKZF1 (Homo sapiens, UniProt Q13422+Q96SW2); experiment: Western-blot assay, substrate protein degradation in hPBMCs: IKZF1; type: cell-based; details: 24 hours of compound treatment, 50 nM and 500 nM
T4 construct: effects of the compounds of the present disclosure on the expression of target proteins in cells; endogenous in cells; host or cells: human PBMCs (hPBMCs)

GSPT1 = biological target: T5, GSPT1 (Homo sapiens, UniProt P15170+Q96SW2); experiment: Western-blot assay, substrate protein degradation in hPBMCs: GSPT1; type: cell-based; details: 24 hours of compound treatment, 50 nM and 500 nM
T5 construct: effects of the compounds of the present disclosure on the expression of target proteins in cells; endogenous in cells; host or cells: human PBMCs (hPBMCs)

H292 = experiment: Cell viability assay (CellTiter-Meiluncell Luminescent), tumor cell proliferation, H292; details: Homo sapiens, NCI-H292, 96 h; for inhibition at 0.01 µM: read-out: Inhibition Rate at 10 nM (%); for inhibition at 0.5 µM: read-out: Inhibition Rate at 500 nM (%)
WEE1 = biological target: T6, WEE1 (Homo sapiens, UniProt P30291+Q96SW2); experiment: Western-blot assay, substrate protein degradation in hPBMCs: WEE1; type: cell-based; details: 24 hours of compound treatment, 50 nM and 500 nM
T6 construct: effects of the compounds of the present disclosure on the expression of target proteins in cells; endogenous in cells; host or cells: human PBMCs (hPBMCs)
T6 sequence (P30291 whole entry): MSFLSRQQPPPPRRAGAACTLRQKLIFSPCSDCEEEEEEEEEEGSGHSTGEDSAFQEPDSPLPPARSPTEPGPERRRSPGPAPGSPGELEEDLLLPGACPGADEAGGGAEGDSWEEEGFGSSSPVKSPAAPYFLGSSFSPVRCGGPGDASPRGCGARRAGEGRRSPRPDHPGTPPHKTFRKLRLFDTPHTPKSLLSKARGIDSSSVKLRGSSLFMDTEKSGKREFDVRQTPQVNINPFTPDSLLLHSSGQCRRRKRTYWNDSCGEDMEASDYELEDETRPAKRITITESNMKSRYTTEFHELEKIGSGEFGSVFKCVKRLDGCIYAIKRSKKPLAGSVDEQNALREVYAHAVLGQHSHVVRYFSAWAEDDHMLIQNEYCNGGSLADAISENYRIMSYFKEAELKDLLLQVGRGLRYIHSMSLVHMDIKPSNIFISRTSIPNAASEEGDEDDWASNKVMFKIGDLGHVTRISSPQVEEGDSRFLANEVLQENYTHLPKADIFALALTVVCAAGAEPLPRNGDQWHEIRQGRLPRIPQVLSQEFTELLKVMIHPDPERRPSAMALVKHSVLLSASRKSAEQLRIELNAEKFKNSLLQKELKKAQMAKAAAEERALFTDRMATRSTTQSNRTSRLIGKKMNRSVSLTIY
T6 sequence (Q96SW2 whole entry): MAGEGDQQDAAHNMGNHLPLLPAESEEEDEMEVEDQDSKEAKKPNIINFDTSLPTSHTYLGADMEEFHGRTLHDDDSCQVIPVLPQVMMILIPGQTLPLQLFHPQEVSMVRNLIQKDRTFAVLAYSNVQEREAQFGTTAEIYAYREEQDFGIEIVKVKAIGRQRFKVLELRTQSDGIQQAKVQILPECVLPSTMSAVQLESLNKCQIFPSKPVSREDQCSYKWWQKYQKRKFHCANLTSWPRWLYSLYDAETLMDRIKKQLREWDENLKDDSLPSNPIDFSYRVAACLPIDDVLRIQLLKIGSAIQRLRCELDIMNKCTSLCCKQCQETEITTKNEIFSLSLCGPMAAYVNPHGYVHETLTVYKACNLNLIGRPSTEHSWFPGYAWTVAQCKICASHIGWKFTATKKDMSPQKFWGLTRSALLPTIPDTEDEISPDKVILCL
T6 sequence (Q16531 whole entry partner): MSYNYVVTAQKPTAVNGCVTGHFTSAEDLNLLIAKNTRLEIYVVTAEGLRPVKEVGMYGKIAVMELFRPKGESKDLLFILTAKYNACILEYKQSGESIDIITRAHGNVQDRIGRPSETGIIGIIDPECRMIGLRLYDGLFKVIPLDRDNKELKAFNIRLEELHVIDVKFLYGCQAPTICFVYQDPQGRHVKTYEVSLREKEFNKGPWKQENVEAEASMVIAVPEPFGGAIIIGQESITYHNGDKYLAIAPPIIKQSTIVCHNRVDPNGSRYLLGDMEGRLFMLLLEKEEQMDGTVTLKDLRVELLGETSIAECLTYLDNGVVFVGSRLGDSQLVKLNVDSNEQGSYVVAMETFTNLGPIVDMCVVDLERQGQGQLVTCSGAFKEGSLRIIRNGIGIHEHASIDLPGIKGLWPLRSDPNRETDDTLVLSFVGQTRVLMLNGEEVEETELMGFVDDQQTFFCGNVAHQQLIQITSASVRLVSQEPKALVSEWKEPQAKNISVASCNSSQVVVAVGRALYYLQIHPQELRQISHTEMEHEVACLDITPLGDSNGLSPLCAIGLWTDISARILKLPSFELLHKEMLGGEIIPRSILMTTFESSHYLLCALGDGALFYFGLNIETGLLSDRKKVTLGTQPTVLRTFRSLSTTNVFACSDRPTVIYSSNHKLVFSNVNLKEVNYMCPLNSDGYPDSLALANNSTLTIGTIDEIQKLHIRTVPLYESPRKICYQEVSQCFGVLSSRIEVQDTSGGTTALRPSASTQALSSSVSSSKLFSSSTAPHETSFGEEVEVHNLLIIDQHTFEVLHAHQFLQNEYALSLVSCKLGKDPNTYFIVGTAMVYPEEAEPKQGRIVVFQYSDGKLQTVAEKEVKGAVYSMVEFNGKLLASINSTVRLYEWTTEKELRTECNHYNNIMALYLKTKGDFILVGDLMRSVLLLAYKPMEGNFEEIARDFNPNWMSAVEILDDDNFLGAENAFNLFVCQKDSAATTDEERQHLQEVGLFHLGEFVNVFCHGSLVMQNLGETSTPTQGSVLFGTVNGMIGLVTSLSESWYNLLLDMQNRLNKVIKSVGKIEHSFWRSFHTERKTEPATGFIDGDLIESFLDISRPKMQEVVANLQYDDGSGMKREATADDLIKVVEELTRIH

T1 sequence (Q9UKS7 whole entry): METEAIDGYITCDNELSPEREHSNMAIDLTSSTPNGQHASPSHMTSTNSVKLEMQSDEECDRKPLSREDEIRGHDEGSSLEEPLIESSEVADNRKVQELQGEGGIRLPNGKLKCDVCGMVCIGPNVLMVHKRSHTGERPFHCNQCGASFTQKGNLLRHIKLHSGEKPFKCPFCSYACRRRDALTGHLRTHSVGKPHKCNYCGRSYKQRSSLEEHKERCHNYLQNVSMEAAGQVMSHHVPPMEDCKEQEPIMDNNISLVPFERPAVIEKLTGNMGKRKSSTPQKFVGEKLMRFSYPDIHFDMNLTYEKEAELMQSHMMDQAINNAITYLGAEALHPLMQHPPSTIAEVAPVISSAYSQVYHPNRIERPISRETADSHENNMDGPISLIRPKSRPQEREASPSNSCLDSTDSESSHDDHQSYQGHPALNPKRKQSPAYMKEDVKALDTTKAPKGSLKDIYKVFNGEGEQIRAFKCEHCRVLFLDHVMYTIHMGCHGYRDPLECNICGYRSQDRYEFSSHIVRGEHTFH
T1 sequence (Q96SW2 whole entry): as the sequence (Q96SW2 whole entry) above
T1 sequence (Q16531 whole entry partner): as the sequence (Q16531 whole entry partner) above
T4 sequence (Q13422 whole entry): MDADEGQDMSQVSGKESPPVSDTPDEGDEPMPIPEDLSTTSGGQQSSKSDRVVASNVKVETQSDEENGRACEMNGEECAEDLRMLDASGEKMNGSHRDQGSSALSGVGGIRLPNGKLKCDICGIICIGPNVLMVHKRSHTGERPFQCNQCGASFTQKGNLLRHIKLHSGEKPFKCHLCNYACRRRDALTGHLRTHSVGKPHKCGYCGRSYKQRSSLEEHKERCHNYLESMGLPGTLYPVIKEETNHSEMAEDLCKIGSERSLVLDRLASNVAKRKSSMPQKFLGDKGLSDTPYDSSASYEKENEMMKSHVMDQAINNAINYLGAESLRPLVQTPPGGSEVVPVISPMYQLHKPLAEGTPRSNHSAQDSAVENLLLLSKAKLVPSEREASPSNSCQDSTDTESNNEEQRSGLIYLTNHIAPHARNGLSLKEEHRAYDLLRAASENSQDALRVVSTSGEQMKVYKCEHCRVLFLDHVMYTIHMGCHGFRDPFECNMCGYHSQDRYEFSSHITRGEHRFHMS
T4 sequence (Q96SW2 whole entry): as the sequence (Q96SW2 whole entry) above
T4 sequence (Q16531 whole entry partner): as the sequence (Q16531 whole entry partner) above
T3 sequence (P48729 whole entry): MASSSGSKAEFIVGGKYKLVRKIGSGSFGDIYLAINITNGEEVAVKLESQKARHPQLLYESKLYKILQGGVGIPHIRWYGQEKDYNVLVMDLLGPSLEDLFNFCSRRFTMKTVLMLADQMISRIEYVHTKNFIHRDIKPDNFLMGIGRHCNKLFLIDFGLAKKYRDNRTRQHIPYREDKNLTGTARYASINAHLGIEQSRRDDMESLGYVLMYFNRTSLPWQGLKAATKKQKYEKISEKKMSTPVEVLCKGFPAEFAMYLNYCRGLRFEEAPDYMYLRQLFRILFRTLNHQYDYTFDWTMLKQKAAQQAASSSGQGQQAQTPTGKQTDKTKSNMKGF
T3 sequence (Q96SW2 whole entry): as the sequence (Q96SW2 whole entry) above
T3 sequence (Q16531 whole entry partner): as the sequence (Q16531 whole entry partner) above
T2 sequence (Q9UKT9 whole entry): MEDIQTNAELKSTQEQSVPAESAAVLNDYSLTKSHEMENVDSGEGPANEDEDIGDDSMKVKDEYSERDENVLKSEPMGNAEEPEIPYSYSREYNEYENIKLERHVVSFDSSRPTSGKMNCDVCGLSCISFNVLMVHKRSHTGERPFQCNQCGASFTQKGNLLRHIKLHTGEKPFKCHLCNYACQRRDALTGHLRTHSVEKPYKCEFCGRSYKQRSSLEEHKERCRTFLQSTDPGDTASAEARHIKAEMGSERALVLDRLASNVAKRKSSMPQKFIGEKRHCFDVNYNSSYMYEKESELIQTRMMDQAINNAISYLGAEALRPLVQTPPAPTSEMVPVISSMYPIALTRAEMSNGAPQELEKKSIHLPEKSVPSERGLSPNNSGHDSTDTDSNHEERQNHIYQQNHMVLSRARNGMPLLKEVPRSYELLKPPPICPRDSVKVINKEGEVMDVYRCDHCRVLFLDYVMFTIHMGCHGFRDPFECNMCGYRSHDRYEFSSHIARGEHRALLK
T2 sequence (Q96SW2 whole entry): as the sequence (Q96SW2 whole entry) above
T2 sequence (Q16531 whole entry partner): as the sequence (Q16531 whole entry partner) above

Compound | inhibition at 0.01 µM (MDA-MB-231) | inhibition at 0.5 µM (MDA-MB-231) | inhibition at 0.01 µM (H2228) | inhibition at 0.5 µM (H2228) | substrate protein remaining % IKZF2 (IKZF2) | substrate protein remaining % IKZF3 (IKZF3) | substrate protein remaining % CK1α (CK1α) | inhibition at 0.01 µM (MV-4-11) | inhibition at 0.5 µM (MV-4-11) | substrate protein remaining % IKZF1 (IKZF1) | substrate protein remaining % GSPT1 (GSPT1) | inhibition at 0.01 µM (H292) | inhibition at 0.5 µM (H292) | substrate protein remaining % WEE1 (WEE1)
O=C1CCN(N2Cc3cc(CN4CCC(c5ncnc6sc7c(c56)CCC7)CC4)ccc3C2=O)C(=O)N1 [GT-08113, 1-(5-((4-(6,7-dihydro-5H-cyclopenta[4,5]thieno[2,3-d]pyrimidin-4-yl)piperidin-1-yl)methyl)-1-oxoisoindolin-2-yl)dihydropyrimidine-2,4(1H,3H)-dione] | 25 to 40% | 40 to 60% | 20 to 25% | 25 to 30% | B (80%< substrate protein remaining %≤ 100%) | B (80%< substrate protein remaining %≤ 100%) | A (0% ≤ substrate protein remaining % ≤ 80%) | 30 to 40% | 10 to 18% | B (80%< substrate protein remaining %≤ 100%) | A (0% ≤ substrate protein remaining % ≤ 80%) | 20 to 40% | 20 to 40% | B (80%< substrate protein remaining %≤ 100%)
Cc1sc2ncnc(C3CCN(Cc4ccc5c(c4)CN(N4CCC(=O)NC4=O)C5=O)CC3)c2c1C [GT-08084, 1-(5-((4-(5,6-dimethylthieno[2,3-d]pyrimidin-4-yl)piperidin-1-yl)methyl)-1-oxoisoindolin-2-yl)dihydropyrimidine-2,4(1H,3H)-dione] | 5 to 10% | 18 to 25% | 10 to 15% | 25 to 30% | B (80%< substrate protein remaining %≤ 100%) | B (80%< substrate protein remaining %≤ 100%) | A (0% ≤ substrate protein remaining % ≤ 80%) | 18 to 25% | 10 to 18% | B (80%< substrate protein remaining %≤ 100%) | A (0% ≤ substrate protein remaining % ≤ 80%) | 1 to 5% | 10 to 15% | B (80%< substrate protein remaining %≤ 100%)
O=C1CCN(N2Cc3cc(CN4CCC(c5ncnc6sccc56)CC4)ccc3C2=O)C(=O)N1 [GT-08082, 1-(1-oxo-5-((4-(thieno[2,3-d]pyrimidin-4-yl)piperidin-1-yl)methyl)isoindolin-2-yl)dihydropyrimidine-2,4(1H,3H)-dione] | 25 to 40% | 18 to 25% | 25 to 30% | 20 to 25% | B (80%< substrate protein remaining %≤ 100%) | B (80%< substrate protein remaining %≤ 100%) | A (0% ≤ substrate protein remaining % ≤ 80%) | 40 to 60% | 40 to 60% | B (80%< substrate protein remaining %≤ 100%) | A (0% ≤ substrate protein remaining % ≤ 80%) | 20 to 40% | 20 to 40% | A (0% ≤ substrate protein remaining % ≤ 80%)
O=C1CCN(N2C(=O)c3ccc(CN4CCN(c5ncnc6sc(Br)cc56)CC4)cc3C2=O)C(=O)N1 [GT-08096, 5-((4-(6-bromothieno[2,3-d]pyrimidin-4-yl)piperazin-1-yl)methyl)-2-(2,4-dioxotetrahydropyrimidin-1(2H)-yl)isoindoline-1,3-dione] | 25 to 40% | 18 to 25% | 30 to 40% | 20 to 25% | B (80%< substrate protein remaining %≤ 100%) | B (80%< substrate protein remaining %≤ 100%) | A (0% ≤ substrate protein remaining % ≤ 80%) | 30 to 40% | 30 to 40% | B (80%< substrate protein remaining %≤ 100%) | A (0% ≤ substrate protein remaining % ≤ 80%) | 40 to 60% | 20 to 40% | A (0% ≤ substrate protein remaining % ≤ 80%)
